One series relates to HIV-1 (IIIB strain). Nature of the series: Anti-HIV-1 assay: inhibition of virus-induced cytopathicity in acutely infected MT-4 cells (MTT). As to conditions: mean of at least two separate experiments. The series is classed as cell-based. The method, then:
(§1) Compounds. Compounds were solubilized in DMSO at 200 mM and then diluted into culture medium.
(§2) Cells and viruses. MT-4, C8166, H9/IIIB and CEM cells were grown at 37° C. in a 5% CO2 atmosphere in RPMI 1640 medium, supplemented with 10% fetal calf serum (FCS), 100 UI/mL penicillin and 100 μg/mL streptomycin. Cell cultures were checked periodically for the absence of mycoplasma contamination with a MycoTect Kit (Gibco). Human immunodeficiency virus type-1 (HIV-1, IIIB strain) was obtained from supernatants of persistently infected H9/IIIB cells.
(§3) Anti-HIV assays. Activity of the compounds against HIV-1 and HIV-2 multiplication in acutely infected cells was based on the inhibition of virus-induced cytopathicity in MT-4 and C8166 cells, respectively. Briefly, 50 μL of culture medium containing 1×10^4 cells were added to each well of flat-bottom microtiter trays containing 50 μl of culture medium with or without various concentrations of the test compounds. Then 20 μL of an HIV suspension containing 100 CCID50 were added. After a 4-day incubation at 37° C., the number of viable cells was determined by the 3-(4,5-dimethylthiazol-[…])-2,5-diphenyltetrazolium bromide (MTT) method. Cytotoxicity of the compounds was evaluated in parallel with their antiviral activity. It was based on the viability of mock-infected cells, as monitored by the MTT method.

The subject of the next series is mock-infected MT-4 cells. Nature of the series: Cytotoxicity: viability of mock-infected cells by the MTT method. The series is classed as cell-based. On the procedure: as §1, §2, §3
For orientation: Tetrazolium dyes change colour on reduction, which living cells bring about.

[1] abbreviates: HIV-1 infected MT-4 cells, MTT method, read-out: EC50: compound dose required to achieve 50% protection of MT-4 cells from HIV-1 induced cytopathogenicity.
[2] abbreviates: MT-4 cells, HIV-1, MTT method, read-out: EC50 (compound dose required to achieve 50% protection of MT-4 cells from HIV-1 induced cytopathogenicity).

Read-outs that look alike come from different tables or passages of the source.

In the case of `Cc1c(C(C)c2c(F)cccc2F)nc(NC2CCCCC2)[nH]c1=O` (racemic) [MC 1181], the EC50 in the series on HIV-1 (IIIB strain) (setting [1]) turned out to be 0.03 µM. For the same compound, the midpoint of cytotoxicity with mock-infected MT-4 cells, the CC50, lay at 58 µM. Taken in the same sequence, the figures for `CCCCNc1nc(C(C)c2c(F)cccc2F)cc(=O)[nH]1` (racemic) [MC 1189] were 0.03 µM and 52 µM. On the same counts, the results for `CCC(C)Nc1nc(C(C)c2c(F)cccc2F)cc(=O)[nH]1` (mixture of isomers) [MC 1192] are 0.04 µM and 86 µM. As for `CCC(C)Sc1nc(Cc2ccc(C(F)(F)F)cc2)cc(=O)[nH]1` (racemic) [MC 959], the EC50 in the series on HIV-1 (IIIB strain) (setting [2]) came to 25 µM. The compound also displayed a CC50 in the series with mock-infected MT-4 cells of 200 µM.

As to `CCC(C)Sc1nc(Cc2ccc(Cl)cc2)cc(=O)[nH]1` (racemic) [MC 859], the EC50 with HIV-1 (IIIB strain) (setting [2]) came out at 5 µM. The compound also displayed a CC50 in the series with mock-infected MT-4 cells of 120 µM. On the same counts, the results for `CCC(c1ccccc1)c1cc(=O)[nH]c(SC2CCCCC2)n1` (racemic) [MC 903] are 1.3 µM and over 200 µM.

For the compound `CCC(C)Sc1nc(Cc2cccc([N+](=O)[O-])c2)cc(=O)[nH]1` (racemic) [MC 897], in the series with HIV-1 (IIIB strain) (setting [2]), the EC50 turned out to be 0.4 µM. The compound also registered a CC50 in the series with mock-infected MT-4 cells of 157 µM. Regarding `Cc1c([C@@H](C)c2c(F)cccc2F)nc(SC2CCCC2)[nH]c1=O` [MC 1047], the EC50 in the series on HIV-1 (IIIB strain) (setting [2]) came out at 0.009 µM. The CC50 in the series on mock-infected MT-4 cells was over 200 µM. Taken in the same sequence, the figures for `CCC(c1ccccc1)c1cc(=O)[nH]c(SC(C)C)n1` (racemic) [MC 899] were 0.8 µM and 200 µM. Turning to `CC(c1cc(=O)[nH]c(NC2CCCCC2)n1)c1c(F)cccc1F` (racemic) [MC 1180], in the series on HIV-1 (IIIB strain) (setting [1]), the EC50 is 0.02 µM. The compound further had a CC50 in the series with mock-infected MT-4 cells of 56 µM. Regarding `CCCCSc1nc(C(C)c2c(F)cccc2F)c(C)c(=O)[nH]1` (racemic) [MC 1175], in the series on HIV-1 (IIIB strain) (setting [1]), the EC50 was determined as 0.008 µM. The compound also showed a CC50 with mock-infected MT-4 cells of 112 µM. On the same counts, the results for `CCCCNc1nc(C(C)c2c(F)cccc2F)c(C)c(=O)[nH]1` (racemic) [MC 1187] are 0.01 µM and 83 µM.

For `CCC(C)Sc1nc(Cc2ccc(C)cc2)cc(=O)[nH]1` (racemic) [MC 809], the concentration giving a half-maximal response (EC50) with HIV-1 (IIIB strain) (setting [2]) stood at 0.6 µM. In the series with mock-infected MT-4 cells, this compound displayed a CC50 of 200 µM. On the same counts, the results for `CCC(C)Sc1nc(C(c2ccccc2)c2ccccc2)cc(=O)[nH]1` (racemic) [MC 796] are over 61 µM and 61 µM. Consider `CC(C)Nc1nc(C(C)c2c(F)cccc2F)cc(=O)[nH]1` (racemic) [MC 1191], for which the EC50 in the series on HIV-1 (IIIB strain) (setting [1]) came out at 0.03 µM. This compound also yielded a CC50 in the series with mock-infected MT-4 cells of 115 µM. `CCC(C)Sc1nc(Cc2cccc(F)c2)cc(=O)[nH]1` (racemic) [MC 884]: the EC50 in the series with HIV-1 (IIIB strain) (setting [2]) was 0.7 µM. In the series on mock-infected MT-4 cells, this compound showed a CC50 of over 200 µM. For the compound `Cc1c(C(C)c2c(F)cccc2F)nc(SC2CCCCC2)[nH]c1=O` (racemic) [MC 1174], the EC50 with HIV-1 (IIIB strain) (setting [1]) came out at 0.018 µM. In the series with mock-infected MT-4 cells, this compound came in with a CC50 of over 200 µM. Turning to `Cc1c(Cc2ccccc2)nc(OC2CC(C)CCC2C)[nH]c1=O` (mixture of isomers) [MC 531], the EC50 in the series with HIV-1 (IIIB strain) (setting [2]) is 3.5 µM. The compound also returned a CC50 in the series on mock-infected MT-4 cells of 138 µM. Turning to `CCC(C)Sc1nc(Cc2ccccc2[N+](=O)[O-])cc(=O)[nH]1` (racemic) [MC 817], the EC50 with HIV-1 (IIIB strain) (setting [2]) came to 0.25 µM. The compound further had a CC50 in the series on mock-infected MT-4 cells of over 200 µM.

Turning to `CNc1nc(C(C)c2c(F)cccc2F)c(C)c(=O)[nH]1` (racemic) [MC 1170], in the series on HIV-1 (IIIB strain) (setting [1]), the EC50 stood at 0.03 µM. The same compound came in with a CC50 in the series with mock-infected MT-4 cells of 200 µM. `CC1CCC(Oc2nc(Cc3ccccc3)cc(=O)[nH]2)CC1C` (mixture of isomers) [MC 508]: the EC50 with HIV-1 (IIIB strain) (setting [2]) is 6.4 µM. This compound also gave a CC50 with mock-infected MT-4 cells of 58 µM. Taken in the same sequence, the figures for `CCC(C)Sc1nc(Cc2ccccc2C)cc(=O)[nH]1` (racemic) [MC 806] were 1.8 µM and over 200 µM. On the same counts, the results for `CCC(C)Sc1nc(Cc2ccccc2C(F)(F)F)cc(=O)[nH]1` (racemic) [MC 868] are 32 µM and over 200 µM. On the same counts, the results for `CCC(C)Sc1nc(Cc2ccc([N+](=O)[O-])cc2)cc(=O)[nH]1` (racemic) [MC 863] are 1.5 µM and 151 µM. For the compound `CNc1nc(C(C)c2c(F)cccc2F)cc(=O)[nH]1` (racemic) [MC 1178], the EC50 with HIV-1 (IIIB strain) (setting [2]) amounted to 0.11 µM. The half-maximal cytotoxic concentration (CC50) in the series with mock-infected MT-4 cells is 106 µM.

For the compound `Cc1c(C(C)c2c(F)cccc2F)nc(SCC(C)C)[nH]c1=O` (racemic) [MC 1153], in the series with HIV-1 (IIIB strain) (setting [1]), the EC50 turned out to be 0.01 µM. Also, in the series with mock-infected MT-4 cells, the CC50 is over 200 µM. As to `CCC(c1ccccc1)c1cc(=O)[nH]c(SC2CCCC2)n1` (racemic) [MC 900], in the series on HIV-1 (IIIB strain) (setting [2]), the EC50 came out at 1 µM. The CC50 in the series on mock-infected MT-4 cells was over 200 µM. On the same counts, the results for `CC1CCC(C)C(Oc2nc(Cc3ccccc3)cc(=O)[nH]2)C1` (mixture of isomers) [MC 507] are 3.5 µM and 143 µM. On the same counts, the results for `CC1CC(C)CC(Oc2nc(Cc3ccccc3)cc(=O)[nH]2)C1` (mixture of isomers) [MC 512] are 30 µM and over 200 µM.

Turning to `CCC(C)Sc1nc(Cc2ccc(F)cc2)cc(=O)[nH]1` (racemic) [MC 889], the EC50 in the series on HIV-1 (IIIB strain) (setting [2]) came out at 8.7 µM. In the series on mock-infected MT-4 cells, this compound came in with a CC50 of over 200 µM. For `CC(c1ccccc1)c1cc(=O)[nH]c(SC2CCCC2)n1` (racemic) [MC 892], in the series on HIV-1 (IIIB strain) (setting [2]), the EC50 came out at 0.6 µM. In the series with mock-infected MT-4 cells, this compound yielded a CC50 of 159 µM.

The compound `Cc1c(Cc2c(F)cccc2F)nc(NC2CCCC2)[nH]c1=O` [MC1050, 2-Cyclopentylamino-6-(2,6-difluorophenylmethyl)-3,4-dihydro-5-methylpyrimidin-4-one] registered a melting point of 115 to 117 °C. For `CC(C)Sc1nc(C(C)c2ccccc2)cc(=O)[nH]1` (racemic) [MC 890], the EC50 with HIV-1 (IIIB strain) (setting [2]) was determined as 0.9 µM. This compound gave a CC50 with mock-infected MT-4 cells of over 200 µM. With `Cc1c(C(C)c2c(F)cccc2F)nc(SC(C)C)[nH]c1=O` (racemic) [MC 1137], the EC50 with HIV-1 (IIIB strain) (setting [1]) worked out at 0.007 µM. In the series with mock-infected MT-4 cells, the CC50 worked out at 200 µM. Turning to `CCC(C)Oc1nc(Cc2c(F)cccc2F)cc(=O)[nH]1` (racemic) [MC 1114], in the series on HIV-1 (IIIB strain) (setting [2]), the EC50 worked out at 25 µM. In the series on mock-infected MT-4 cells, the midpoint of cytotoxicity, the CC50, lay at 130 µM.

One may read the EC50 as the concentration that produces a half-maximal response. The CC50 is the concentration that lowers cell viability or growth by half. A low value points to greater toxicity to the cells. What is called melting point is the temperature, or range, at which the solid turns liquid.

Values taken from patent US6635636B1, “Substituted 6-benzyl-4-oxopyrimidines, process for their preparation and pharmaceutical compositions containing them” (Idenix Pharmaceuticals, Inc., priority 1998, dated 2003).
